One molecule from patent US20060121126A1, “Environmentally friendly pesticide and method of use” (priority 2004, published 2006) can be followed below.

This test has as its system Culex pipiens and Aedes Egypti late 3rd instar larvae. The test is described as follows: Mosquito larvae mortality in cups of tap water. The settings on record: 20 larvae in 150 mL tap water. The test is classed as in vivo. How it is done:
A series of control experiments are conducted to study the effect of aqueous hydrogen peroxide and saponin extract on mosquito larvae, individually, and in combination. In a series of 30 experiments, 20 Culex pipiens and Aedes Egypti in the late 3rd instar larvae are placed in a cup containing 150 mL of tap water. In separate experiments, the larvae are exposed to varying concentrations of hydrogen peroxide saponin extract. The mortality is recorded over a 5-day period.

Each structure is given as a SMILES string.

Take `OO` [hydrogen peroxide]: the “concentration needed to achieve 50% larvae mortality in 24 hrs” value was above 100 ppm.
